Assay results from a melting point compilation (Tetko et al.; mined from patent text by program, amines drawn as free bases though some values may be those of a salt).

Row | SMILES | melting point [°C]
1 | CC(C)S(=O)(=O)Nc1ccc2c(=O)c3c(sc2c1)CC(C)(C)CC3 | 263
2 | O=C(c1ccccn1)c1cc2ccncc2[nH]1 | 219 to 222
3 | O=C(O)c1ccc2nc(-c3ccc(C(=O)NC4CCCCC4)cc3)[nH]c2c1 | 334 to 337
4 | CCOC(=O)C(Cc1ccc(C(=O)C(C)(C)C)cc1)(Cc1ccc(C(=O)C(C)(C)C)cc1)C(=O)OCC | 65 to 67
5 | COc1ccc(CCNC(=O)COc2ccc(C[C@H](OC)C(=O)O)cc2)cc1 | 97 to 98
6 | CC(C)Oc1nc(-c2ccc(=O)n(C(C)C)n2)c(-c2ccccc2)nc1N | 198 to 200
7 | CC(=O)Nc1cc(N(C)C)ccc1C(=O)c1ccccc1C(=O)O | 174 to 181
8 | CN1CCN(c2cccc3c2C[C@H](NC(=O)CCc2ccccc2)CC3)CC1 | 184 to 186
9 | O=C(O)C1Cc2c(cc(Cl)c3c(-c4ccccc4F)noc23)O1 (centres undefined) | 191 to 193
10 | CCNC(=O)[C@H](C)C[C@H](O)[C@H](CC1CCCCC1)NC(=O)[C@H](Cc1cscn1)NC(=O)OC(C)(C)C | 179 to 181
11 | CC(C)(C)OC(=O)NC1CC2CCCC(C1)N2Cc1ccccc1 (centres undefined) | 154 to 155
12 | COc1ccc(CCN2CCC(NC(C)=O)CC2)cc1OC | 152 to 154
13 | O=C(c1ccc(Cl)cc1)c1cncnc1 | 110 to 112
14 | CN1CCN(c2ccc(Nc3nc(N)c(C(=O)c4c(Cl)cc(C(F)(F)F)cc4Cl)s3)cc2)CC1 | 239 to 240
15 | C(=C\c1ccc2oc3ccc(/C=C/c4ccccc4)cc3c2c1)/c1ccccc1 | 226
16 | COc1cccc(N(CC(=O)N(C)c2ccccc2)C(=O)CNC(=O)Nc2cccc(C)c2)c1 | 179
17 | COc1ccc(-c2n[nH]c3c2Cc2ccccc2-3)cc1 | 247
18 | CN(C)c1ccc(Cl)cc1[N+](=O)[O-] | 54 to 55
19 | Nc1ccc(C(c2ccccc2)(c2ccc(N)cc2)C(F)(F)F)cc1 | 217 to 218
20 | CCCCCCc1ccc(C#Cc2ccc(Br)cc2)cc1 | 67
21 | CC(C)OCC(COC(C)C)OCn1cnc2cnc(N)nc21 | 89 to 90
22 | COc1ccc(NC(=O)Cn2c3c(c4cc(Cl)c(Cl)cc42)CCN(C(=O)OC(C)(C)C)CC3)cc1 | 151 to 152
23 | O=C(c1ccc([N+](=O)[O-])cc1)N1CCc2cn[nH]c2-c2ncccc21 | 255 to 256

Row | SMILES | melting point [°C]
24 | CNC(=O)c1[nH]c(C(C)(C)C)cc1NC(=O)Nc1ccc(C)cc1 | 164 to 166
25 | COc1cc(Nc2c(C#N)cnc3cc(-c4ccc(CN5CCOCC5)cc4)sc23)c(Cl)cc1Cl | 244 to 245
26 | Cc1ccc(Nc2c([N+](=O)[O-])ccc(Cl)c2C(=O)O)cc1 | 192 to 197
27 | CCOC(=O)c1cc(-c2csc(C)n2)[nH]n1 | 141 to 142
28 | CC(C)Oc1ccc(CCCOc2nn(Cc3ccccc3)cc2CC(=O)O)c(Oc2ncc(C(F)(F)F)cc2Cl)c1 | 115 to 116
29 | C(=C\c1nc(COc2ccc(CCCCCCn3cncn3)cc2)co1)/c1ccccc1 | 90 to 91
30 | CCC1(CC(=O)O)OCC(=O)c2c1[nH]c1ccccc21 (centres undefined) | 235 to 238
31 | O=Cc1ccc(-c2cn(S(=O)(=O)c3ccccc3)c3ccccc23)o1 | 140
32 | Cn1cc(-c2nnn[nH]2)c(=O)c2ccc(F)cc21 | 290 to 292
33 | CC(C)(C)CC(=Cc1ccc(Cl)cc1)Cn1cncn1 | 81 to 84
34 | COc1ccc(-c2nc(N(C)C)c3c(C)c(C#N)sc3n2)cc1OC | 198 to 200
35 | CC(C)(C)OC(=O)N1CCC2(CC1)c1ccccc1CS2=O (centres undefined) | 103 to 107
36 | CCc1cc(Nc2ccc(NC(=O)c3ccccc3S(=O)(=O)O)cc2)n2nccc2n1 | > 320
37 | O=S(=O)(Nc1cccc(C=C2c3ccccc3CCc3ccccc32)c1)c1ccccc1 | 122
38 | C=CCOCc1c(CN(C)C[C@@H](O)c2ccccn2)sc2c(=O)c(C(=O)NCc3ccc(Cl)cc3)cn(C)c12 | 125 to 127
39 | c1cnc(NCCN2CCC(=C3c4sccc4CCn4ccnc43)CC2)nc1 | 173
40 | CC(C)(C)SC1N(C(C(=O)OCc2ccc([N+](=O)[O-])cc2)C(=O)C(C)(C)C)C(=O)C1(C)C (centres undefined) | 87.5 to 90.5
41 | CSc1cc(=O)c2cc(OC(=O)OC(C)(C)C)c(OC(=O)OC(C)(C)C)cc2s1 | 110 to 111
42 | CCOC(=O)C(C(=O)OCC)C(CC#N)c1ccc(CC)cc1 (centres undefined) | 157 to 159
43 | CC(=O)c1c(C)[nH]c(C(C)CCC(C)c2[nH]c(C)c(C(C)=O)c2C)c1C (centres undefined) | 263 to 268
44 | Cc1nc(-n2ccc(OCC3CC3)cc2=O)sc1C(=O)NCc1ccccc1 | 218 to 220
45 | CCN(c1ccc([N+](=O)[O-])cc1Cl)S(=O)(=O)c1ccc(C)cc1 | 118 to 119
46 | COc1ccc2c(c1)c(CC(=O)Oc1cccc(CO[N+](=O)[O-])c1)c(C)n2C(=O)c1ccc(Cl)cc1 | 115 to 117

Row | SMILES | melting point [°C]
47 | C#CC(C)Oc1cc(Cl)ccc1-n1c(=O)cc(C(F)(F)F)n(C)c1=O (centres undefined) | 96 to 99
48 | CCCCCCCCNP(N)(N)=O | 102 to 114
49 | CC(C)Cn1c(=O)n(C)c(=O)c2c(SCCCO)n(Cc3cccc4ccccc34)nc21 | 135
50 | Nc1nc2c(ncn2Cc2cccnc2)c(=O)[nH]1 | > 300
51 | C=C1c2ccccc2C(=O)N1c1ccncc1 | 173 to 174
52 | N#CNC(=S)Nc1ccc(OCc2ccccc2)cc1 | > 270
53 | O=S(=O)(Nc1ccc2c(-c3ccccc3Cl)n[nH]c2c1)c1cccc(Cl)c1 | 187 to 189
54 | Cc1oc(-c2ccco2)nc1COc1ccc(COc2nn(-c3ccccc3)cc2C#N)cc1 | 158 to 159
55 | Cc1nc2cnc3ccccc3c2[nH]1 | 242 to 245
56 | CS(=O)(=O)c1ccc(-c2cnn(-c3ccc(F)c(F)c3)c(=O)c2Cc2ccccc2)cc1 | 166 to 168
57 | CCOC(=O)COc1cc(C(F)(F)F)c2c(=O)c(-c3ccccc3)coc2c1 | 139 to 140
58 | CC(C)NC1=NS(=O)(=O)c2ccc(C(F)(F)F)cc2N1 | 294 to 297
59 | Fc1ccc(Cl)cc1-c1nnn[nH]1 | 124
60 | Cc1ccc(Sc2cncc3sc(C(=O)NC=NN)cc23)cc1 | 202 to 205
61 | CN(Cc1ccccc1Sc1nc2ccccc2[nH]1)c1ccccc1 | 168 to 169
62 | Nc1ccc(N=Nc2ccc(N)c(C(F)(F)F)c2)c(C(F)(F)F)c1 | 136
63 | COc1cccc(-c2nn(Cc3oc4ccccc4c(=O)c3-c3cccc(F)c3)c3ncnc(N)c23)c1 | 175 to 178
64 | NC(=O)c1ccccc1-c1cc([N+](=O)[O-])ccc1-c1ccc([N+](=O)[O-])cc1 | 242 to 244
65 | O=C(O)c1[nH]c2cc(Cl)cc(Cl)c2c1NCS(=O)(=O)c1ccccc1 | 286 to 290
66 | O=C1CC(NC(=O)C2CCCN3C(=O)CCC(NC(=O)c4ccc5c(c4)OCO5)C(=O)N23)C(OCc2ccccc2)O1 (centres undefined) | 135 to 140
67 | FC(F)(F)c1cccc(CSc2nnc(-c3ccc4[nH]ncc4c3)o2)c1 | 159 to 160
68 | CCCOc1cnc(CO)cc1O | 159 to 160
69 | CC1(C)[C@@H](CNC(=O)c2ccccc2F)CC[C@@]1(C)NCC(=O)N1C[C@@H](F)C[C@H]1C#N | 123 to 127
